A short description of this series: Stability of NG-497 exposed to HepG2 cells. In kind it is in vitro ADME. The note with it: human, cells treated 1 h with 40 μM NG-497, inhibitor removed, DMEM 10% FCS, read-out: half-life (T1/2) when exposed to HepG2 cells. Here is the method: Figure 2 Development and characterization of the human ATGL inhibitor NG-497. (a) Structure and IC50 values of human ATGL inhibitors. (b) Dose-dependent inhibition of human ATGL by respective inhibitors. (c) ATGL activity was determined at the indicated substrate concentrations in the absence and presence of NG-497 (0.5 μM). Ki was determined by nonlinear regression analysis using GraphPad Prism. Lineweaver–Burk analysis of ATGL inhibition is shown in the inset. (d) Toxicity of NG-497 in HepG2 cells was determined after 24 h incubation at indicated concentrations. Cisplatin and DMSO were used as positive and negative controls, respectively. Cytotoxicity was determined using the Roche LDH Kit and calculated as relative LDH release compared to fully lysed cells. (e) Stability of NG-497 was analyzed via ultrahigh-performance liquid chromatography–mass spectrometry (UHPLC-MS) after incubation in human serum for 0 or 3 h at 37 °C. Atglistatin and a chemically related unstable compound were used as controls. […] NG-497 concentrations/well were determined at the indicated time points using UHPLC-MS. […] Statistical significance was determined via t test (*p < 0.05; **p < 0.01; ***p < 0.001) or ANOVA followed by Bonferroni post hoc test (^###p < 0.001). […] The detected 297 lipid species of both groups were analyzed with supervised multivariate analysis OPLS-DA and are shown as a loading plot. […]

On to `CCOc1ccc(-c2cc(OC)cc(C(=O)OC(C)C)n2)cc1` [NG-497], for which the half-life at 40 µM was determined as 46 min.
